Data set [1] in a line: Ocular tissue concentrations after oral and topical dosing. Format: in vivo, Rabbits. To be noted: rabbit, retina, read-out: retinal memantine concentration. As for the experimental part: Ocular tissue concentrations were also determined after oral and topical dosing. Rabbits were dosed topically with 35 μl of a 0.1% aqueous solution of memantine twice a day for 7 days. Another subset of rabbits was dosed orally with 2 mg/kg memantine for seven days. At the end of the dosing period ocular tissue concentrations were quantified. The retinal memantine concentrations from topical and oral dosing were essentially equivalent (107 ng/ml and 108 ng/ml, respectively).

Data set [2] is described as follows: Apparent octanol/water partition coefficient. To be noted: memantine HCl, printed as Log 3.0. Format: physicochemical. The text has this: (§1) For example, memantine may be employed as an EEC in accordance with this invention. […] The memantine HCl apparent octanol/water partition coefficient is Log 3.0. The high apparent partition and high solubility appear contradictory. However, the charged amine of memantine HCl (pKa 10.27) results in the high solubility while the free base results in the high partitioning of memantine into octanol. As the HCl salt and free base are in equilibrium, permeation of the free base through biologic tissues results. The impact of a high solubility and a high partition coefficient of the free base are a high bioavailability.

Data set [3] is described as follows: Aqueous solubility of memantine HCl. Format: physicochemical. Particulars: HCl salt, pH 6.5 aqueous solution.
Source text: as §1

A short description of another data set: pKa of the charged amine. Particulars: charged amine of memantine HCl. The data set is classed as physicochemical.
Source text: as §1

The nature of data set [4]: Autoradiography of the eye after topical ophthalmic instillation. Format: in vivo, albino and pigmented rabbits. The protocol: General disposition of topical ophthalmic 1-amino-3,5-dimethyladamantane hydrochloride (memantine) instillation was assessed by autoradiography. Briefly, albino and pigmented rabbits were dosed via topical ophthalmic instillation with a 0.74% aqueous isotonic memantine solution, pH 7.4. After dosing autoradiographic sections of the eye were acquired at 0.25, 0.5, 1, and 2 and 24 hours post dosing. […] Further, a qualitative assessment of residence time could be made from the data.

Data set [5] is classed as in vivo, human. As for the experimental part: A person receives a routine eye examination. […] With their habitual spectacle correction, their best corrected visual acuities are 20/20 in both eyes. Their pupils are found to be round, equally reactive to light, and without any presence of afferent pupillary defect. […] Their intraocular pressures are measured at 32 mmHg in both eyes (with the Goldmann tonometer at 3 pm). […] A Humphrey C-20 automated threshold visual field test indicates the presence of generalized depression in both eyes. […] Their blood pressure is 125/85 and their pulse rate is 60 beats/min. Because of the enlarged cup to disc ratio, elevated intraocular pressures, and the generalized depression of the threshold visual fields, they are diagnosed with open angle glaucoma. Timolol 0.5% 1 drop two times daily in both eyes is prescribed for two weeks. The patient is to return in two weeks for a follow-up evaluation. At the follow-up evaluation, they state that they have been compliant with the prescribed therapy. Their intraocular pressure is measured at 28 mmHg at 1 pm with the Goldmann tonometer. Their blood pressure is 118/86 and their pulse rate is 65 beats/min. Bromonidine-conjugate 0.2% 1 drop two times daily in both eyes is added to the treatment regimen. After another two weeks, the patient has a follow-up evaluation, during which, the patient's intraocular pressure measures 18 mmHg in the right eye, and 17 mmHg in the left eye. Their blood pressure and pulse rate remain normal. The patient is re-evaluated every 3 months with the continuation of combination therapy.

The test system of a further data set is CMV retinitis. Put plainly: Patient case, CMV retinitis (Example 5). Format: in vivo, human. The text has this: A person complains of gradual onset of floaters and progressive reduction of vision in both eyes, but without pain. The patient has been HIV+ for 7 years, and was recently hospitalized for Cryptococcal pneumonia. The patient is taking AZT, ddI, indinivir, and has been for the past three years, with moderate compliance. […] Granular hemorrhagic areas are noted throughout the retina, with a “brushfire” appearance. […] These findings are all evidence of CMV retinitis, secondary to AIDS. Ganciclovir-conjugate 0.5% 1 drop four times daily in both eyes is prescribed. At a two-week follow-up examination, the patient states full compliance with the treatment protocol. The patient also states an improvement in vision with a reduced number of floaters. […] The patient is advised to continue the ganciclovir-conjugate drops indefinitely.

A further data set has as its system fungal corneal ulcer. Put plainly: Patient case, fungal corneal ulcer (Example 3). The data set is classed as in vivo, human. To be noted: next day; 5% natamycin drops each hour (day) / every two hours (night) with 5% homatropine four times each day. The protocol:
A […] […] […] comes to a clinic complaining of severe pain, redness, tearing, and photophobia in […] left eye. One day before, the patient was hit by a tree twig while playing football in the park. Severe conjunctival hyperemia with clear discharge is observed. […] Intraocular pressure is also elevated (20 mmHg) by Goldman tonometry. A fungal corneal ulcer is diagnosed. The patient is administered 5% natamycin drops each hour during the day and every two hours at night and 5% homatropine four times each day for […] left eye. […] The patient is experiencing blurriness in the left eye. […] The extent of Na Fl stain is also enlarged. The patient is given 0.15% amphotericin B drops and 5% ketoconazole-conjugate drops once daily in both eyes. […] 5% natamycin drops every two hours are administered around the clock, as well as 5% homatropine two times daily, and 5% ketoconazole-conjugate drops once daily.

Molecules are shown by their SMILES. Where two headings read alike, the source gives them in different places.

As for `CC12CC3CC(C)(C1)CC(N)(C3)C2.Cl` [memantine, 1-amino-3,5-dimethyladamantane hydrochloride], the concentration at 7 days in data set [1] (35 μl of a 0.1% aqueous solution, topical, 35 μl of 0.1% aqueous solution twice a day for 7 days) turned out to be 107 ng/mL; in data set [1] (oral, 2 mg/kg for seven days) it was 108 ng/mL. Further, the “apparent octanol/water partition coefficient (Log)” value in data set [2] was 3.0. Besides, the solubility in [3] is 3.5%. Also, the “binding to natural and synthetic melanin” value in the data set “In-vitro melanin binding” is recorded as “strongly bound”. Moreover, in the data set “pKa of the charged amine”, the pKa (commonly the pH at which an ionisable group is half protonated) came to 10.3. Besides, the “tissue distribution after topical dosing (autoradiography)” value in data set [4] (0.74% aqueous isotonic solution pH 7.4, topical ophthalmic, sections 0.25-24 h post dosing) is given as “present in the posterior sclera, choroids and/or retina”. In addition, the “half-life in the posterior globe (qualitative)” value in data set [4] (albino and pigmented rabbits, topical ophthalmic 0.74% solution) is reported as “relatively long”. Besides, the “binding to ocular melanin (autoradiography intensity in pigmented tissues)” value in data set [4] (pigmented tissues, topical ophthalmic 0.74% solution) was “bound to the ocular melanin”. For the same compound, in data set [4] (topical delivery), the “route of penetration from topical delivery (autoradiography)” value is recorded as “trans-retinal route of penetration across the blood-retinal barrier”.

In the case of `CC(C)(C)NC[C@H](O)COc1nsnc1N1CCOCC1` [Timolol], the intraocular pressure in data set [5] (after two weeks of Timolol 0.5% 1 drop two times daily, both eyes, baseline 32 mmHg, Goldmann tonometer) turned out to be 28 mmHg. Also, in data set [5] (human, in vivo), the blood pressure is listed as 118/86 and the pulse rate was 65 beats/min.

Turning to `CC12CC3CC(N)(C1)CC(C(=O)OCC(CO)OCn1cnc4c(=O)[nH]c(N)nc41)(C3)C2` (stereo not shown) [Ganciclovir-conjugate], the clinical outcome in the data set with CMV retinitis (one month follow-up, same regimen) is on record as “complete remission of ocular manifestations of CMV retinitis”. For the same compound, the ophthalmic examination outcome in the data set with CMV retinitis (two-week follow-up, 0.5% 1 drop four times daily in both eyes) is “reduction in hemorrhages around the retinal vessels and cotton wool spots”.

`C[C@@H]1C/C=C/C=C/C=C/C=C/[C@H](O[C@@H]2O[C@H](C)[C@@H](O)[C@H](N)[C@@H]2O)C[C@@H]2O[C@](O)(C[C@@H](O)C[C@H]3O[C@@H]3/C=C/C(=O)O1)C[C@H](O)[C@H]2C(=O)O` [natamycin]: in the data set with fungal corneal ulcer, the clinical outcome is reported as “symptoms have not improved”.

The record behind these values is patent US20030114460A1, “Pharmaceutical conjugates with enhanced pharmacokinetic characteristics” (priority 2001, published 2003).
